Data as given in ChEMBL document CHEMBL1129610, “3- and 4-pyridylalkyl adamantanecarboxylates: inhibitors of human cytochrome P450(17 alpha) (17 alpha-hydroxylase/C17,20-lyase). Potential nonsteroidal agents for the treatment of prostatic cancer” (J Med Chem, 1996).

How the values were obtained:
[1] = molecular target: T1, Steroid 17-alpha-hydroxylase/17,20 lyase (Homo sapiens, UniProt P05093); type: microsomes, Testis, Microsomes
T1 sequence (P05093 whole entry): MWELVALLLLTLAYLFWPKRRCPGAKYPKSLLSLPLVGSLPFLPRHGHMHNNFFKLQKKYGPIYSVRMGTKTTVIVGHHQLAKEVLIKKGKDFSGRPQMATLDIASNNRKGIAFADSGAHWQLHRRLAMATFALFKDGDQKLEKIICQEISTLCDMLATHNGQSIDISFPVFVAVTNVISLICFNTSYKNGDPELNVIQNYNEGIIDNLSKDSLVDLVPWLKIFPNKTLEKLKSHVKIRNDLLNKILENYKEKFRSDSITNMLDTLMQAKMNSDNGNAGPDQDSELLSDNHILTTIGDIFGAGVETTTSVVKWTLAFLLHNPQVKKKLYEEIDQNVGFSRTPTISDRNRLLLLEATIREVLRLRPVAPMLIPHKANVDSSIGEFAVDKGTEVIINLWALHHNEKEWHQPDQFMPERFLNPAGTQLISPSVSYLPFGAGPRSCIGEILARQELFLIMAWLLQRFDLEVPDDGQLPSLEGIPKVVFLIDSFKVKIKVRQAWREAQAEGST

[2] = molecular target: T1, Steroid 17-alpha-hydroxylase/17,20 lyase
in vitro [3] = details: rat, in vivo
Mus musculus [4] = species: Mus musculus; type: functional
Rattus norvegicus [5] = species: Rattus norvegicus; type: functional
in vitro [6] = details: rat, in vivo; remark: listed apart in the source
Mus musculus [7] = species: Mus musculus; type: functional; remark: listed apart in the source
in vitro [8] = details: rat, in vivo; remark: listed apart in the source
Mus musculus [9] = species: Mus musculus; type: functional, Blood
Rattus norvegicus [10] = species: Rattus norvegicus; type: functional, Blood
Homo sapiens = species: Homo sapiens; type: functional, Blood

Q: What does the source list for C[C@H](NC(=O)C12CC3CC(CC(C3)C1)C2)c1ccncc1?
A: IC50 [1]: 210 nM; IC50 [2]: 820 nM

Q: For C[C@H](OC(=O)C12CC3CC(CC(C3)C1)C2)c1ccncc1, which half-life (in vitro [3]) is on record?
A: 30 s

Q: For C[C@@H](OC(=O)C12CC3CC(CC(C3)C1)C2)c1ccncc1, which half-life (in vitro [3]) is on record?
A: 30 s

Q: What does the source list for CC(C)(OC(=O)C12CC3CC(CC(C3)C1)C2)c1ccncc1?
A: Substrate metabolized at 1hr (Mus musculus [4]): 0%; Substrate metabolized at 1hr (Rattus norvegicus [5]): 0%; half-life at 1 h (in vitro [6]): > 1 h; Substrate metabolized at 1hr (Mus musculus [7]): 2%

Q: Which half-life at 1 min (in vitro [8]) does the source give for O=C(OCc1ccncc1)C12CC3CC(CC(C3)C1)C2 here?
A: < 60 s

Q: And the “Substrate metabolized at 1hr” value (Mus musculus [9])?
A: 100%

Q: And the “Substrate metabolized at 1hr” value (Rattus norvegicus [10])?
A: 100%

Q: What about the “Substrate metabolized at 1hr” value (Homo sapiens) of the same compound?
A: 45%

Q: Which IC50 [1] does the source give for C[C@@H](NC(=O)C12CC3CC(CC(C3)C1)C2)c1ccncc1 here?
A: 430 nM

Q: And the IC50 [2]?
A: 1900 nM
